According to ChEMBL document CHEMBL3638676, “Triazolopyridine compounds” (2015):

Molecular target: Phosphodiesterase 3 (Homo sapiens, UniProt Q14432+Q13370)
Assay: Scintillation Proximity Assay (SPA): The kinase assay is based on the LanthaScreen technology.
Type: protein assay

- IC50: 13 µM
SMILES: Cn1cc(-c2cc(F)c3nnc(Sc4ccc5ncc(NCCO)cc5c4)n3c2)cn1
